Data as given in ChEMBL document CHEMBL1773019, “Antifibrotic constituents of Alnus firma on hepatic stellate cells” (Bioorg Med Chem Lett, 2011).
Activity calls are given as the source filed them. No cut-off for these calls is given here.

Experiments:
[1] = Antifibrotic activity against rat HSC-T6 cells assessed as inhibition of proliferation after 48 hrs by BrdU incorporation assay; assay type: functional, cell-based; conditions: HSC-T6, 48 h
[2] = test system: HSC-T6; assay: Decrease in collagen content in rat HSC-T6 cells at 10 to 100 uM after 48 hrs by sirius red-based colorimetric assay; assay type: functional, cell-based
[3] = Induction of apoptosis in rat HSC-T6 cells assessed as increase in caspase-3/7 activity at 10 to 100 ug/ml after 24 to 48 hrs; assay type: functional
[4] = test system: HSC-T6; assay: Induction of cell death in rat HSC-T6 cells assessed as decrease in cell viability at 100 uM by MTT assay; assay type: functional, cell-based; conditions: TDE = time-dependent effect
[5] = test system: HSC-T6; assay: Induction of cell death in rat HSC-T6 cells assessed as decrease in cell viability after 48 hrs by MTT assay; assay type: functional, cell-based
[6] = test system: HSC-T6; assay: Antiproliferative activity against rat HSC-T6 cells at 10 to 100 ug/ml after 24 to 48 hrs by BrdU incorporation assay; assay type: functional, cell-based
[7] = Cytotoxicity against rat HSC-T6 cells assessed as decrease in LDH release; assay type: cell-based
[8] = Inhibition of rat HSC-T6 cell proliferation at 100 ug/ml after 48 hrs by BrdU incorporation assay; assay type: functional; conditions: HSC-T6, 48 h

Structure (SMILES) | IC50 [1] [µM] | Activity [2] | Activity [3] [%] | Activity [4] | Activity [5] | Activity [6] | Activity [7] | inhibition at 100 µg/mL [8] [%]
O=C(O[C@@H]1Cc2c(O)cc(O)cc2O[C@@H]1c1cc(O)c(O)c(O)c1)c1cc(O)c(O)c(O)c1 [EPIGALOCATECHIN GALLATE] | 9.9 |  |  |  |  |  |  | 
C=C(C)[C@@H]1CC[C@]2(CO)CC[C@]3(C)[C@H](CC[C@@H]4[C@@]5(C)C[C@@H](O)[C@H](OC(=O)/C=C/c6ccc(O)c(O)c6)C(C)(C)[C@@H]5CC[C@]43C)[C@@H]12 | 23.9 | Dose-dependent effect | 150 | tde | Dose-dependent effect | Active | Non-toxic | 
O=C(/C=C/CCc1ccc(O)c(O)c1)CCc1ccc(O)c(O)c1 [DEHYDROHIRSUTANONOL] | 14 | Dose-dependent effect | 150 | tde | Dose-dependent effect | Active | Non-toxic | 
OC[C@@]1(O)CO[C@@H](OC[C@H]2O[C@@H](O[C@H](CCCCc3ccc(O)cc3)CCc3ccc(O)cc3)[C@H](O)[C@@H](O)[C@@H]2O)[C@@H]1O | 39.1 |  |  |  |  |  |  | 22.7
